# Measurements taken from patent US20150218212A1, “FLUORINATED EPOXYKETONE-BASED TETRAPEPTIDE COMPOUNDS AND USES THEREOF AS PROTEASOME INHIBITORS” (FLUORINOV PHARMA INC., priority 2012, published 2015).
# Tests used:
# Type in all cases: cell-based, human
# [1] = system: IGROV1; experiment: NCI screening panel, IGROV1 (Ovarian Cancer)
# Description: (§1) Representative compounds of Formula I were screened using the National Cancer Institute (NCI) screening panel, which consists of a panel of human tumor cell lines, representing leukemia, melanoma, and cancers of the lung, colon, ovary, breast, prostate and renal system.
# (§2) After 24 h, two plates of each cell line are fixed in situ with TCA, to represent a measurement of the cell population for each cell line at the time of drug addition (Tz). Experimental drugs are solubilised in dimethyl sulfoxide at 400-fold the desired final maximum test concentration and stored frozen prior to use. At the time of drug addition, an aliquot of frozen concentrate is thawed and diluted to twice the desired final maximum test concentration with complete medium containing 50 μg/mL gentamicin. Additional four, 10-fold or ½ log serial dilutions are made to provide a total of five drug concentrations plus control. Aliquots of 100 μl of these different drug dilutions are added to the appropriate microtiter wells already containing 100 μl of medium, resulting in the required final drug concentrations.
# (§3) Following drug addition, the plates are incubated for an additional 48 h at 37° C., 5% CO2, 95% air, and 100% relative humidity. For adherent cells, the assay is terminated by the addition of cold TCA (trichloroacetic acid). Cells are fixed in situ by the gentle addition of 50 μl of cold 50% (w/v) TCA (final concentration, 10% TCA) and incubated for 60 minutes at 4° C. The supernatant is discarded, and the plates are washed five times with tap water and air dried. Sulforhodamine B (SRB) solution (100 μl) at 0.4% (w/v) in 1% acetic acid is added to each well, and plates are incubated for 10 minutes at room temperature. After staining, unbound dye is removed by washing five times with 1% acetic acid and the plates are air dried. Bound stain is subsequently solubilised with 10 mM trizma base, and the absorbance is read on an automated plate reader at a wavelength of 515 nm. For suspension cells, the methodology is the same except that the assay is terminated by fixing settled cells at the bottom of the wells by gently adding 50 μl of 80% TCA (final concentration, 16% TCA). Using the seven absorbance measurements [time zero, (Tz), control growth, (C), and test growth in the presence of drug at the five concentration levels (Ti)], the percentage growth is calculated at each of the drug concentrations levels. Percentage growth inhibition is calculated as: [(Ti−Tz)/(C−Tz)]×100 for concentrations for which Ti>/=Tz and [(Ti−Tz)/Tz]×100 for concentrations for which Ti<Tz.
# (§4) Three dose response parameters are calculated for each experimental agent. Growth inhibition of 50% (GI50) is calculated from [(Ti−Tz)/(C−Tz)]×100=50, which is the drug concentration resulting in a 50% reduction in the net protein increase (as measured by SRB staining) in control cells during the drug incubation. The drug concentration resulting in total growth inhibition (TGI) is calculated from Ti=Tz. The LC50 (concentration of drug resulting in a 50% reduction in the measured protein at the end of the drug treatment as compared to that at the beginning) indicating a net loss of cells following treatment is calculated from [(Ti−Tz)/Tz]×100=−50. Values are calculated for each of these three parameters if the level of activity is reached. However, if the effect is not reached or is exceeded, the value for that parameter is expressed as greater or less than the maximum or minimum concentration tested.
# [2] = system: TK-10; experiment: NCI screening panel, TK-10 (Renal Cancer)
# Description: as §1, §2, §3, §4
# [3] = system: HT29; experiment: NCI screening panel, HT29 (Colon Cancer)
# Description: as §1, §2, §3, §4
# [4] = system: HOP-62; experiment: NCI screening panel, HOP-62 (Non-Small Cell Lung Cancer)
# Description: as §1, §2, §3, §4
Compound,Log10GI50 [1],Log10LC50 [1],Log10TGI50 [1],Log10GI50 [2],Log10LC50 [2],Log10TGI50 [2],Log10GI50 [3],Log10LC50 [3],Log10TGI50 [3],Log10GI50 [4],Log10LC50 [4],Log10TGI50 [4]
"CC(C)C[C@H](NC(=O)[C@H](Cc1ccccc1)NC(=O)[C@H](COC(F)F)NC(=O)[C@H](COC(F)F)NC(=O)CN1CCOCC1)C(=O)[C@@]1(C)CO1 [Example 11, (2S)-2-[[(2S)-3-(difluoromethoxy)-2-[[(2S)-3-(difluoromethoxy)-2-[(2-morpholinoacetyl)-amino]propanoyl]amino]propanoyl]amino]-N-[(1S)-3-methyl-1-[(2R)-2-methyloxirane-2-carbonyl]butyl]-3-phenyl-propanamide]",−7.38,>−4.00,−4.36,−6.80,>−4.00,−5.30,−7.70,>−4.00,−5.91,−7.56,>−4.00,−4.94
"CC(C)C[C@H](NC(=O)[C@H](COC(F)F)NC(=O)[C@H](COC(F)F)NC(=O)[C@H](CCc1ccccc1)NC(=O)CN1CCOCC1)C(=O)[C@@]1(C)CO1 [Example 7, (2S)-N-[(1S)-1-(difluoromethoxymethyl)-2-[[(1S)-1-(difluoromethoxymethyl)-2-[[(1S)-3-methyl-1-[(2R)-2-methyloxirane-2-carbo-nyl]butyl]amino]-2-oxo-ethyl]amino]-2-oxo-ethyl]-2-[(2-morpholinoacetyl)amino]-4-phenyl-butanamide]",−7.49,>−4.00,−5.55,−6.56,>−4.00,−5.24,<−8.00,>−4.00,−4.93,−7.63,>−4.00,−7.00
"CC(C)C[C@H](NC(=O)[C@H](COC(F)F)NC(=O)CN1CCOCC1)C(=O)N[C@@H](Cc1ccccc1)C(=O)N[C@@H](CC(C)C)C(=O)[C@@]1(C)CO1 [Example 2, (2S)-N-[(1S)-1-benzyl-2-[[(1S)-3-methyl-1-[(2R)-2-methyloxirane-2-carbonyl]butyl]-amino]-2-oxo-ethyl]-2-[[(2S)-3-(difluoromethoxy)-2-[(2-morpholinoacetyl)amino]propanoyl]amino]-4-methyl-pentanamide]",−7.59,>−4.00,−6.66,−7.47,>−4.00,−5.73,<−8.00,>−4.00,−7.04,−7.90,−7.04,−7.47
"CC(C)C[C@H](NC(=O)[C@H](COC(F)F)NC(=O)CN1CCOCC1)C(=O)N[C@@H](Cc1ccccc1)C(=O)N[C@@H](Cc1ccccc1)C(=O)[C@@]1(C)CO1 [Example 3, (2S)-N-[(1S)-1-benzyl-2-[[(1S)-1-benzyl-2-[(2R)-2-methyloxiran-2-yl]-2-oxo-ethyl]amino]-2-oxo-ethyl]-2-[[(2S)-3-(difluoromethoxy)-2-[(2-morpholinoacetyl)-amino]propanoyl]amino]-4-methyl-pentan-amide]",−7.93,>−4.00,−7.02,−7.55,>−4.00,−5.91,<−8.00,−4.44,−6.25,<−8.00,−4.76,−7.20
"CC(C)C[C@H](NC(=O)[C@H](COC(F)F)NC(=O)CN1CCOCC1)C(=O)N[C@@H](COC(F)F)C(=O)N[C@@H](Cc1ccccc1)C(=O)[C@@]1(C)CO1 [Example 4, (2S)-N-[(1S)-2-[[(1S)-1-benzyl-2-[(2R)-2-methyloxiran-2-yl]-2-oxo-ethyl]amino]-1-(difluoromethoxymethyl)-2-oxo-ethyl]-2-[[(2S)-3-(difluoromethoxy)-2-[(2-mor-pholinoacetyl)amino]propanoyl]amino]-4 methyl-pentanamide]",−7.33,>−4.00,−5.57,−6.57,>−4.00,−5.48,−7.50,>−4.00,−5.63,−7.65,>−4.00,−6.98
"CC(C)C[C@H](NC(=O)[C@H](COC(F)F)NC(=O)[C@H](COC(F)F)NC(=O)[C@H](COC(F)F)NC(=O)CN1CCOCC1)C(=O)[C@@]1(C)CO1 [Example 17, (2S)-3-(difluoromethoxy)-N-[(1S)-1-(difluoromethoxymethyl)-2-[[(1S)-1-(difluoro-methoxymethyl)-2-[[(1S)-3-methyl-1-[(2R)-2-methyloxirane-2-carbonyl]butyl]amino]-2-oxo-ethyl]amino]-2-oxo-ethyl]-2-[(2-mor-pholinoacetyl)amino]-propanamide]",−6.87,>−4.00,−5.82,−6.30,>−4.00,−4.85,−7.30,>−4.00,−6.28,−6.82,>−4.00,>−4.00
"CC(C)C[C@H](NC(=O)[C@H](COC(F)F)NC(=O)CN1CCOCC1)C(=O)N[C@@H](COC(F)F)C(=O)N[C@@H](CC(C)C)C(=O)[C@@]1(C)CO1 [Example 1, (2S)—N-[(1S)-1-(difluoromethoxymethyl)-2-[[(1S)-3-methyl-1-[(2R)-2-methyloxirane-2-carbonyl]butyl]amino]-2-oxo-ethyl]-2-[[(2S)-3-(difluoromethoxy)-2-[(2-morpholinoacetyl)amino]propanoyl]amino]-4-methyl-pentanamide]",−7.43,>−4.00,−6.40,−6.53,>−4.00,−5.17,−7.77,>−4.00,−4.15,−7.76,−6.57,−7.33
